Results reported in US9545386B2, “Methods of treating infectious diseases” (SLIPPERY ROCK UNIVERSITY FOUNDATION, INC., priority 2007, dated 2017).

Legend:
[1] = tested on: Haemonchus contortus infective larvae; test: In vitro bioassay of infective larvae, immobilization and lethal doses (eosin, Probit); format: cell-based; conditions: for 24 hr ID50 ± 95% confidence intervals / 48 hr ID50 ± 95% confidence intervals: immobilize 50%; for 24 hr ID50 ± 95% confidence intervals / 24 hr ID90 ± 95% confidence intervals / 24 hr LD50 ± 95% confidence intervals / 24 hr LD90 ± 95% confidence intervals: 24 hr in vitro; for 48 hr ID50 ± 95% confidence intervals / 48 hr ID90 ± 95% confidence intervals / 48 hr LD50 ± 95% confidence intervals / 48 hr LD90 ± 95% confidence intervals: 48 hr in vitro; for 24 hr ID90 ± 95% confidence intervals / 48 hr ID90 ± 95% confidence intervals: immobilize 90%; for 24 hr LD50 ± 95% confidence intervals / 48 hr LD50 ± 95% confidence intervals: kill 50%; for 24 hr LD90 ± 95% confidence intervals / 48 hr LD90 ± 95% confidence intervals: kill 90%
Procedure: (§1) Strongyloides stercoralis infective larvae were harvested from charcoal coprocultures in nematode saline solution. The larvae were supplied by the Parasitology Laboratory, Department of Pathobiology, University of Pennsylvania. The strain of larvae was a human strain of the parasitic nematode that had been maintained for over ten years in canines by daily prednisolone treatment (2 mg/kg per os, once daily. Parastrongyloides trichosuri and Ancylostoma caninum infective larvae were also supplied by the same source as for S. stercoralis. Haemonchus contortus infective larvae were harvested from charcoal coprocultures in nematode saline solution prepared from infected sheep feces obtained from Merck Parasites Laboratory.
(§2) The 24 hr 50% and 90% immobilization doses (ID50 and ID90), and 50% and 90% lethal doses (LD50 and LD90) of eryngial (mg/ml) were investigated in vitro using infective larvae of all four parasitic nematodes. Each species was exposed to a range of eryngial dilutions by adding known volumes of a homogeneous ‘wormy’ solution (infective larvae in nematode saline solution) to known volumes of an eryngial stock suspension (10 mg/ml of nematode saline solution). Each dilution, including the control (0 mg/ml eryngial), was prepared in triplicate and also contained eosin (0.01%, w/v), which was used as an indicator of mortality, and Triton X-100 (1.0%, v/v).
(§3) Using S. stercoralis, P. trichosuri, H. contortus and A. caninum infective larvae, eryngial dilutions, excluding the controls, ranged from 0.05 to 1.15 mg/ml; 0.01 to 1.0 mg/ml; 0.5 to 2.0 mg/ml; and 0.8 to 3.0 mg/ml, respectively. Sub-sample (10 μl) counts of larvae that were mobile, immobile but not stained and stained, were done at the start of each bioassay and at 24 hr intervals for two days. Each sub-sample contained approximately 50 infective larvae.
(§4) The 48-hr immobilization doses (ID50 and ID90) and lethal doses (LD50 and LD90) of eryngial and ivermectin also were investigated, using S. stercoralis and H. contortus infective larvae. Each bioassay was conducted as described hereinabove. Using S. stercoralis and H. contortus infective larvae, ivermectin dilutions (not including the controls) ranged from 0.03 to 0.3 mg/ml and from 0.009 to 0.1 mg/ml, respectively.
(§5) Probit analysis was used to determine 24 hr and 48 hr immobilization and lethal doses for eryngial and ivermectin, respectively.

[2] = tested on: Strongyloides stercoralis infective larvae; test: as above; format: cell-based; conditions: for 24 hr ID50 ± 95% confidence intervals / 48 hr ID50 ± 95% confidence intervals: immobilize 50%; for 24 hr ID50 ± 95% confidence intervals / 24 hr ID90 ± 95% confidence intervals / 24 hr LD50 ± 95% confidence intervals / 24 hr LD90 ± 95% confidence intervals: 24 hr in vitro; for 48 hr ID50 ± 95% confidence intervals / 48 hr ID90 ± 95% confidence intervals / 48 hr LD50 ± 95% confidence intervals / 48 hr LD90 ± 95% confidence intervals: 48 hr in vitro; for 24 hr ID90 ± 95% confidence intervals / 48 hr ID90 ± 95% confidence intervals: immobilize 90%; for 24 hr LD50 ± 95% confidence intervals / 48 hr LD50 ± 95% confidence intervals: kill 50%; for 24 hr LD90 ± 95% confidence intervals / 48 hr LD90 ± 95% confidence intervals: kill 90%
Procedure: as §1, §2, §3, §4, §5

[3] = tested on: Ancylostoma caninum infective larvae; test: as above; format: cell-based; conditions: for 24 hr ID50 ± 95% confidence intervals: immobilize 50%; for 24 hr ID90 ± 95% confidence intervals: immobilize 90%
Procedure: as §1, §2, §3, §5

[4] = tested on: Parastrongyloides trichosuri infective larvae; test: as above; format: cell-based; conditions: for 24 hr ID50 ± 95% confidence intervals / 24 hr ID90 ± 95% confidence intervals / 24 hr LD50 ± 95% confidence intervals / 24 hr LD90 ± 95% confidence intervals: P. trichosuri infective larvae, 24 hr in vitro; for 24 hr ID50 ± 95% confidence intervals: immobilize 50%; for 24 hr ID90 ± 95% confidence intervals: immobilize 90%; for 24 hr LD50 ± 95% confidence intervals: kill 50%; for 24 hr LD90 ± 95% confidence intervals: kill 90%
Procedure: as §1, §2, §3, §5

S. stercoralis L3 larvae = conditions: after 120 hr of incubation, Forbes et al. (unpublished); cited from earlier work
[5] = H. contortus infective larvae, 48 hr, eryngial vs ivermectin
[6] = H. contortus infective larvae, listed as eryngial
[7] = S. stercoralis infective larvae
[8] = S. stercoralis infective larvae, listed as eryngial
[9] = S. stercoralis, eryngial vs ivermectin
[10] = A. caninum infective larvae, 24 hr in vitro
[11] = A. caninum infective larvae, 24 hr in vitro, listed as eryngial

## CCCCCCCCC/C=C/C=O [Eryngial, trans-2-dodecenal]
[1]; 24 hr ID50, H. contortus relative to P. trichosuri
  increase in the dose required to immobilize 50%: 10.2 fold
[1]; [5]
  times more effective than ivermectin at eliciting 90% mortality: 2.9 times
  times more potent at killing 50% than ivermectin: 3.7 times
[1]; H. contortus infective larvae
  24 hr ID50 ± 95% confidence intervals: 0.132 (0.078-0.186) mg/ml
  48 hr ID50 ± 95% confidence intervals: 0.313 (0.143-0.453) mg/ml
  24 hr ID90 ± 95% confidence intervals: 0.782 (0.641-0.998) mg/ml
  48 hr ID90 ± 95% confidence intervals: 0.761 (0.530-1.488) mg/ml
  24 hr LD50 ± 95% confidence intervals: 1.793 (1.516-2.558) mg/ml
  48 hr LD50 ± 95% confidence intervals: 1.361 (1.284-1.449) mg/ml
  24 hr LD90 ± 95% confidence intervals: 2.765 (2.010-5.915) mg/ml
  48 hr LD90 ± 95% confidence intervals: 2.360 (2.109-2.768) mg/ml
[1]; [6]
  24 hr ID50 ± 95% confidence intervals: 0.132 mg/mL
  48 hr ID50 ± 95% confidence intervals: 0.313 mg/mL
  24 hr ID90 ± 95% confidence intervals: 0.782 mg/mL
  48 hr ID90 ± 95% confidence intervals: 0.761 mg/mL
  24 hr LD50 ± 95% confidence intervals: 1.793 mg/mL
  48 hr LD50 ± 95% confidence intervals: 1.361 mg/mL
  24 hr LD90 ± 95% confidence intervals: 2.765 mg/mL
  48 hr LD90 ± 95% confidence intervals: 2.360 mg/mL
[2]; 24 hr ID50, S. stercoralis compared with A. caninum
  decrease in the 50% immobilization dose: 9.4 fold
[2]; 24 hr ID50, S. stercoralis compared with H. contortus
  decrease in the 50% immobilization dose: 2.3 fold
[2]; 24 hr ID50, S. stercoralis relative to P. trichosuri
  less sensitive to eryngial than P. trichosuri: 4.5 fold
[2]; 24 hr ID90, S. stercoralis over A. caninum
  increased sensitivity to eryngial (90% immobilization): 10.7 fold
[2]; 24 hr LD50, S. stercoralis than A. caninum
  increase in sensitivity to eryngial (50% mortality doses): 7.2 fold
[2]; 24 hr LD50, S. stercoralis than H. contortus
  increase in sensitivity to eryngial (50% mortality doses): 21.1 fold
[2]; 24 hr LD90, S. stercoralis over A. caninum
  increased sensitivity to eryngial (90% mortality doses): 8.2 fold
[2]; 24 hr LD90, S. stercoralis over H. contortus
  increased sensitivity to eryngial (90% mortality doses): 19.3
[2]; S. stercoralis L3 larvae, eryngial vs ivermectin
  times more effective than ivermectin (48 hr ID90): 3.9 times
[2]; S. stercoralis infective larvae, eryngial vs ivermectin
  times more potent than ivermectin (48 hr ID50): 2.5 times
[2]; [7]
  24 hr ID50 ± 95% confidence intervals: 0.058 (0.054-0.061) mg/ml
  48 hr ID50 ± 95% confidence intervals: 0.054 (0.047-0.061) mg/ml
  24 hr ID90 ± 95% confidence intervals: 0.081 (0.076-0.088) mg/ml
  48 hr ID90 ± 95% confidence intervals: 0.077 (0.066-0.101) mg/ml
  24 hr LD50 ± 95% confidence intervals: 0.085 (0.073-0.102) mg/ml
  48 hr LD50 ± 95% confidence intervals: 0.069 (0.058-0.085) mg/ml
  24 hr LD90 ± 95% confidence intervals: 0.143 (0.115-0.245) mg/ml
  48 hr LD90 ± 95% confidence intervals: 0.105 (0.085-0.174) mg/ml
[2]; [8]
  24 hr ID50 ± 95% confidence intervals: 0.058 mg/mL
  48 hr ID50 ± 95% confidence intervals: 0.054 mg/mL
  24 hr ID90 ± 95% confidence intervals: 0.081 mg/mL
  48 hr ID90 ± 95% confidence intervals: 0.077 mg/mL
  24 hr LD50 ± 95% confidence intervals: 0.085 mg/mL
  48 hr LD50 ± 95% confidence intervals: 0.069 mg/mL
  24 hr LD90 ± 95% confidence intervals: 0.143 mg/mL
  48 hr LD90 ± 95% confidence intervals: 0.105 mg/mL
[2]; [9]
  times more effective than ivermectin (48 hr LD50): 4.4 times
  times more potent than ivermectin (48 hr LD90): 9.9 times
[3]; 24 hr ID50, A. caninum relative to P. trichosuri
  increase in the dose required to immobilize 50%: 41.9 fold
[3]; [10]
  24 hr ID50 ± 95% confidence intervals: 0.545 (0.440-0.641) mg/ml
  24 hr ID90 ± 95% confidence intervals: 0.867 (0.717-1.445) mg/ml
[3]; [11]
  24 hr ID50 ± 95% confidence intervals: 0.545 mg/mL
  24 hr ID90 ± 95% confidence intervals: 0.867 mg/mL
[3]; A. caninum infective larvae, kill 50%, 24 hr in vitro
  24 hr LD50 ± 95% confidence intervals: 0.608 (0.429-0.765) mg/ml
[3]; A. caninum infective larvae, kill 90%, 24 hr in vitro
  24 hr LD90 ± 95% confidence intervals: 1.178 (0.913-2.100) mg/ml
[4]; 24 hr ID90, P. trichosuri compared to A. caninum
  increased sensitivity to eryngial (90% immobilization): 9.4 fold
[4]; 24 hr ID90, P. trichosuri over H. contortus
  increased sensitivity to eryngial (90% immobilization): 8.5 fold
[4]; 24 hr LD50, P. trichosuri over A. caninum
  increase in sensitivity to eryngial (50% mortality doses): 5.8 fold
[4]; 24 hr LD50, P. trichosuri over H. contortus
  increase in sensitivity to eryngial (50% mortality doses): 17.1 fold
[4]; 24 hr LD90, P. trichosuri over A. caninum
  increased sensitivity to eryngial (90% mortality doses): 4 fold
[4]; 24 hr LD90, P. trichosuri over H. contortus
  increased sensitivity to eryngial (90% mortality doses): 9.3 fold
[4]
  24 hr ID50 ± 95% confidence intervals: 0.013 (0.007-0.030) mg/ml
  24 hr ID90 ± 95% confidence intervals: 0.092 (0.051-0.201) mg/ml
  24 hr LD50 ± 95% confidence intervals: 0.105 (0.084-0.133) mg/ml
  24 hr LD90 ± 95% confidence intervals: 0.297 (0.214-0.515) mg/ml
[4]; listed as eryngial
  24 hr ID50 ± 95% confidence intervals: 0.013 mg/mL
  24 hr ID90 ± 95% confidence intervals: 0.092 mg/mL
  24 hr LD50 ± 95% confidence intervals: 0.105 mg/mL
  24 hr LD90 ± 95% confidence intervals: 0.297 mg/mL
S. stercoralis L3 larvae
  increase in effectiveness over ivermectin based on time (hr) taken to kill 50% (LT50): 7.1 fold
